Common to all, as to format: in vivo, zebrafish
In data set [1] the test system is caudal fin keratinocytes (cell death). In words: Keratinocyte cell death, 12 hr time-lapse imaging. The protocol:
(§1) Fish were anesthetized in 2-phenoxyethanol (1:1000) in Ringer's solution prior to imaging and mounted in 1.2% agarose. EB3-GFP and Tau-Bfp2 were imaged with a scan speed kept at the maximum level in single slice mode with […] for a total of 60s to capture microtubule dynamics. h2a:H2A-GFP time-lapse recordings were produced (Zeiss LSM880 AiryScan confocal microscope) with 1 μm sections recorded every 10 min for 12 hr using 800×800 pixels. All other live fish were imaged using 1024×1024 pixels.
(§2) Cell divisions and cell death were manually counted in 12 hr movie recordings. The caudal fin was divided into 6 quadrants and individual cells in each quadrant were manually followed over 12 hr at least 3 times sequentially to capture cell divisions and dying cell behaviors.

In data set [2] the test system is microtubules in keratinocytes. The data set can be described thus: EB3-GFP microtubule growth dynamics in keratinocytes. Here is the method: as §1
(§3) EB3-GFP tracking was done in Fiji using the MTrackJ plugin to trace microtubules over time and create Kymographs, measure the velocity, track length, and comet duration. Tracking was also performed using the Spots and Surface tools in Imaris. Settings were initially automatically detected to fit the fluorescence and subsequently modified manually for improved fit. Settings were maintained between treatment groups.
To validate this, microtubule growth dynamics were characterized in basal keratinocytes expressing the microtubule plus-end binding protein, EB3-GFP (courtesy of R. Koester) (Distel et al., 2010, The Journal of cell biology 191: 875-890). […] However, a small proportion of keratinocytes also harbored uniformly labelled EB3-positive microtubules, consistent with previous observations in murine axons (Kleele et al., 2015, Proceedings of the National Academy of Sciences of the United States of America 112: 7501-7506). […] This behavior therefore contrasts the curved conformation of stable dfMTs.

The subject of data set [3] is HyPer oxidation in keratinocytes. The data set can be described thus: Compartmentalized HyPer oxidation (nucleus, plasma membrane) in keratinocytes. Particulars: paclitaxel, alone or with EMD534085; for nuclear HyPer oxidation: nucleus. Here is the method: HyPer fluorescence was measured in the oxidized (505 nm) and unoxidized (420 nm) channels by using the region of interest (ROI) function in ZEN Black (Zeiss) whereby ROIs were selected inside highly magnified mitochondria (HyPer-mito), cytoplasm (HyPer-cyto) or the plasma membrane (HyPer-CAAX). The data was exported, and ratios determined in Excel. H2O2 measurements in zebrafish transiently injected with tp63:Hyper were manually performed by placing spot objects in Imaris 9.5.1 onto individual cells such that the spots extended to the lateral edges. Fluorescence intensities were measured inside the spots and 505 nm/420 nm ratios were subsequently calculated.
These findings supported a role for Eg5 in nuclear X-ROS production as a result of microtubule fasciculation and increased mechanical tension.

Data set [4] relates to caudal fin keratinocytes (mitosis). In words: Keratinocyte mitosis, 12 hr time-lapse imaging of h2a:h2a-GFP fish. Here is the method: as §1, §2
To examine the effects of EMD534085 on mitosis, cell divisions in keratinocytes expressing nuclear h2a-h2a:GFP were quantified using 12 hr time-lapse imaging. […] The few divisions present were mostly restricted to the distal notochord region, with an average of 0.96±0.20/12 hr divisions at 3dpf and 1.16±0.44/12 hr at 6dpf in this region (shown in FIG. 6A).

In data set [5] the test system is Tau-Bfp2 microtubules in keratinocytes. The data set can be described thus: Tau-Bfp2-stabilized microtubules in keratinocytes. Conditions: 96 hr. Here is the method: as §1
Microtubule analyses was performed in Imaris 9.5.1 (Bitplane) by measuring the straightness of filaments (microtubules) using the “Filaments—Dendrite Straightness” tool, which was defined as the ratio between […] between two branch points (h). The value was always smaller than 1 since the Dendrite Straightness of 1 defines straight objects.
as §3
Tau therefore seems to prevent paclitaxel-induced dfMT formation.
Thus EB3-GFP plus-ends appeared in part to grow along pre-existing stable microtubules, which could be a means to maintain cellular organization.

Data set [6] relates to keratinocyte nuclei. In words: Nuclear volume and sphericity of keratinocytes. Particulars: 96 hr, keratinocytes with dfMTs. Here is the method:
Nuclear sphericity and volume were calculated in Imaris following 3D rendering of round keratinocyte nuclei using the Surface tool. First, background subtractions were performed, followed by automatic threshold detection. The threshold was adjusted if necessary to fit the nucleus. Thresholds were kept constant for comparisons.
It was expected that dfMTs should be in close proximity to the nucleus in order to activate Nox1 by mechanotransduction. To further confirm this expectation, high resolution imaging and 3D rendering of keratinocyte dfMTs and nuclei were used.

Data set [7] relates to mmp13a. The data set can be described thus: qPCR mmp13 expression, whole larvae. Particulars: wildtype, 48 hr paclitaxel. The protocol: Zebrafish larvae (AB/Nacre) were treated in pools of ~20-30 larvae per treatment per biological replicate (BR); each BR consisted of embryos from distinct parents. Larvae were collected into 1.5 ml reaction tubes post-treatment and RNA extraction was performed using the rNeasy Plus Micro kit (Qiagen, Cat. No. 74034). cDNA was synthesized from ~300 ng total RNA using the Superscript IV VILO kit (Thermo Fisher, Cat. No. 11756050). Primers in target genes were designed wherein primers annealed in two exons separated by one or several large introns that could not be amplified with the selected PCR settings, to avoid genomic DNA contamination. Quantitative PCR was performed with the Applied Biosystems QuantStudio 3 using PowerUp SYBR Green (ThermoFisher, Cat No. A25741). Amplification signals for expressed target genes were normalized to zebrafish 18S rRNA signals. qPCR conditions were used as follows: 95 °C for 10 minutes, 40 cycles of 95 °C for 15 seconds, 50 °C for 30 seconds, 72 °C for 30 seconds. Each biological replicate was run in quadruplicate. Data were presented as relative expression compared to control using the delta-vdelta Ct (2^^-ΔΔCt) method.
Stretching was performed after 96 hr treatment, followed by 2 hr post-stretch fixation, and staining for detection of acetylated tubulin in axons.

[8] abbreviates: 22 μM paclitaxel, alone or with EMD534085, 96 hr.

`CN(C)CCNC(=O)NC[C@H]1CC[C@@H]2[C@H](O1)c1cc(C(F)(F)F)ccc1N[C@H]2c1ccccc1` [EMD534085] displayed a cell death in data set [1] (EMD534085 alone, 96 hr) of 0.81±0.26 dying cells/caudal fin. Besides, the “paclitaxel-dependent microtubule growth dynamics” value in data set [2] (EMD534085 with 22 μM paclitaxel) is “did not alter the effects induced by paclitaxel alone”. Besides, in data set [3], the “nuclear HyPer oxidation” value is on record as “Nuclear HyPer oxidation was reduced upon co-administration of EMD534085” and the “plasma membrane HyPer oxidation” value is “without effects on plasma membrane oxidation”. Further, the “mitotic divisions per animal” value in data set [4] (EMD534085 alone, 96 hr) is 1.27±0.46 /12 hr.

In the case of `CC(=O)O[C@H]1C(=O)[C@@]2(C)[C@H]([C@H](OC(=O)c3ccccc3)[C@]3(O)C[C@H](OC(=O)[C@H](O)[C@@H](NC(=O)c4ccccc4)c4ccccc4)C(C)=C1C3(C)C)[C@]1(OC(C)=O)CO[C@@H]1C[C@@H]2O` [paclitaxel], the cell death is 0.18±0.18 dying cells/caudal fin in data set [1] (100 nM paclitaxel, alone or with EMD534085, 96 hr) and 0.6±0.3 dying cells/caudal fin in data set [1] (setting [8]). Further, the “keratinocytes with uniform EB3 labelling” value stood at 20.13% in data set [2] (22 μM paclitaxel, 96 hr); 19.29% in data set [2] (paclitaxel, 3 hr); 10.09% in data set [2] (paclitaxel, 48 hr). Further, the comet duration result in data set [2] (paclitaxel, 3 hr) is reported as “not affected”. Moreover, the “growth velocity and track length of microtubules” value in data set [2] (paclitaxel, 3 hr) is “decreased the growth velocity and track length of microtubules”. Also, in data set [2] (paclitaxel, 48 hr and 96 hr), the linearity of microtubules result is recorded as “further enhanced the linearity”. For the same molecule, the “nuclear HyPer oxidation” value in data set [3] is recorded as “increased oxidation within the nucleus”. Further, in data set [3], the “plasma membrane HyPer oxidation” value is given as “not at the plasma membrane”. In data set [5] (Tau-Bfp2 + 22 μM paclitaxel), the “EB3-GFP puncta co-localized with Tau-Bfp2” value is on record as 91.26±1.64%. Besides, in data set [5] (Tau-Bfp2 + paclitaxel), the “velocity of EB3-GFP plus-ends” value amounted to 0.184±0.003 μm/s. In addition, in data set [5] (strong Tau-Bfp2 + paclitaxel), the “microtubule straightness (1=straight, 0=curved)” value came out at 0.98±0.002. Further, the nuclear volume in data set [6] (22 μM paclitaxel) amounted to 582±83.18 μm3. Besides, the “nuclear sphericity (1=spherical vs. 0=nonspherical)” value in data set [6] (paclitaxel) came to 0.23±0.01. The “mitotic divisions per animal” value worked out at 0.72±0.423 in data set [4] (100 nM paclitaxel, 96 hr) and 1.4±0.67 in data set [4] (setting [8]). Moreover, the mmp13 expression entry in data set [7] is on record as “increased mmp13 expression”.

Source of the values: patent publication US20260345584A1, “METHODS AND PHARMACEUTICAL COMPOSITIONS FOR TREATING CHEMOTHERAPY-INDUCED PERIPHERAL NEUROPATHY WITH EG5 INHIBITORS” (UNIVERSITY OF MIAMI, priority 2023, published 2026).
